Experimental data reported in paper PMC7316778 (Nature Communications, 2020).
Several values for one entry are separate records, joined by “and”; a condition that tells them apart may be missing. Identical values can stand only once. Like-named read-outs stand apart in the source and are kept apart here.

Columns and labels:
Assay in all cases: SelectScreen kinase assay
PAK2 (PAK65) = PAK2 (PAK65) (Homo sapiens, UniProt Q13177)
Method: (§1) Selectivity profiling assays were performed by the Invitrogen SelectScreen™ Services. […] The concentration of ATP was selected to be equal to the KM, unless indicated otherwise.

RIPK2 = RIPK2 (Homo sapiens, UniProt O43353)
Method: as §1

BMPR1B (ALK6) = BMPR1B (ALK6) (Homo sapiens, UniProt O00238)
BMPR1B (ALK6), sequence (O00238 14-502): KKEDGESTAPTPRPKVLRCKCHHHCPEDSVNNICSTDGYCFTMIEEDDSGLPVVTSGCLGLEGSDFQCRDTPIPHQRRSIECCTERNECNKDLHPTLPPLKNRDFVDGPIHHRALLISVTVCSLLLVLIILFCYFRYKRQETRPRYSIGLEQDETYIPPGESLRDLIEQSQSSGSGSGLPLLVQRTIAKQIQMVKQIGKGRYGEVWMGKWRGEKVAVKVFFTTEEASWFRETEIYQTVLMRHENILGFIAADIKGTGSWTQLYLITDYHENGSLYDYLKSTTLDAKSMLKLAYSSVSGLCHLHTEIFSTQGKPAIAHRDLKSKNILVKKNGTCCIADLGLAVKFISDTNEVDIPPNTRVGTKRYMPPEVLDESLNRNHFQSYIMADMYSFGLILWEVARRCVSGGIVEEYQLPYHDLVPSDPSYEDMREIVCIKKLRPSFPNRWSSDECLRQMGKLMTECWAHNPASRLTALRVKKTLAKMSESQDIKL
Method: as §1

MAPK3 (ERK1) = MAPK3 (ERK1) (Homo sapiens, UniProt P27361)
MAPK3 (ERK1), sequence (P27361 whole entry): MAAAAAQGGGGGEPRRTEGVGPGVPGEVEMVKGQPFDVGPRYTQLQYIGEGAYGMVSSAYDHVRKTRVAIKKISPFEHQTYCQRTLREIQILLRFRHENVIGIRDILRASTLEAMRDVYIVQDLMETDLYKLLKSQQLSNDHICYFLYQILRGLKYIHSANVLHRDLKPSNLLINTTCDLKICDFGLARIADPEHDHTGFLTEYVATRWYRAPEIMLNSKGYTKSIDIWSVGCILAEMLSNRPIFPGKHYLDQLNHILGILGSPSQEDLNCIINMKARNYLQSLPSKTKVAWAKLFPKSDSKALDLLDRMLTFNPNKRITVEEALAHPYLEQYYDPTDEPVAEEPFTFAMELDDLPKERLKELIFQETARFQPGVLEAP
Method: as §1

PRKCZ (PKC zeta) = target: T1, PRKCZ (PKC zeta) (Homo sapiens, UniProt Q05513); conditions: for Inhibition at 1 µM (%): PRKCZ (PKC zeta), ZLYTE, ATP Km app
T1 sequence (Q05513 1-592): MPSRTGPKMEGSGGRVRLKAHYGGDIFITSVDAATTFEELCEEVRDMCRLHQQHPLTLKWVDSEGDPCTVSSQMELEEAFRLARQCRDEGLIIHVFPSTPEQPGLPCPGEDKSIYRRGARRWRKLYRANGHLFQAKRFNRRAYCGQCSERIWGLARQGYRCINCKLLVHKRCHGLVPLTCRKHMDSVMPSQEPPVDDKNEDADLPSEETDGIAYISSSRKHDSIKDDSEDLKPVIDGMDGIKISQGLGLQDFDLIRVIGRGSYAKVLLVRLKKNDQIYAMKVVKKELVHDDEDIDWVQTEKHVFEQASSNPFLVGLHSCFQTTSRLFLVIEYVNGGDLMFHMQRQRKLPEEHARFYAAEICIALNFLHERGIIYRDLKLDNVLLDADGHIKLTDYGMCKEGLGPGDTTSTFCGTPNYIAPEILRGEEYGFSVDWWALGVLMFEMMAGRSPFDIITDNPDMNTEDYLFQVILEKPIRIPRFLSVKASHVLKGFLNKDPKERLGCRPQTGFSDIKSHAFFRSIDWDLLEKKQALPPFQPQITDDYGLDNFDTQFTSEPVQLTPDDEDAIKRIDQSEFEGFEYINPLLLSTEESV
Method: as §1

DDR2 = DDR2 (Homo sapiens, UniProt Q16832)
DDR2, sequence (Q16832 22-855): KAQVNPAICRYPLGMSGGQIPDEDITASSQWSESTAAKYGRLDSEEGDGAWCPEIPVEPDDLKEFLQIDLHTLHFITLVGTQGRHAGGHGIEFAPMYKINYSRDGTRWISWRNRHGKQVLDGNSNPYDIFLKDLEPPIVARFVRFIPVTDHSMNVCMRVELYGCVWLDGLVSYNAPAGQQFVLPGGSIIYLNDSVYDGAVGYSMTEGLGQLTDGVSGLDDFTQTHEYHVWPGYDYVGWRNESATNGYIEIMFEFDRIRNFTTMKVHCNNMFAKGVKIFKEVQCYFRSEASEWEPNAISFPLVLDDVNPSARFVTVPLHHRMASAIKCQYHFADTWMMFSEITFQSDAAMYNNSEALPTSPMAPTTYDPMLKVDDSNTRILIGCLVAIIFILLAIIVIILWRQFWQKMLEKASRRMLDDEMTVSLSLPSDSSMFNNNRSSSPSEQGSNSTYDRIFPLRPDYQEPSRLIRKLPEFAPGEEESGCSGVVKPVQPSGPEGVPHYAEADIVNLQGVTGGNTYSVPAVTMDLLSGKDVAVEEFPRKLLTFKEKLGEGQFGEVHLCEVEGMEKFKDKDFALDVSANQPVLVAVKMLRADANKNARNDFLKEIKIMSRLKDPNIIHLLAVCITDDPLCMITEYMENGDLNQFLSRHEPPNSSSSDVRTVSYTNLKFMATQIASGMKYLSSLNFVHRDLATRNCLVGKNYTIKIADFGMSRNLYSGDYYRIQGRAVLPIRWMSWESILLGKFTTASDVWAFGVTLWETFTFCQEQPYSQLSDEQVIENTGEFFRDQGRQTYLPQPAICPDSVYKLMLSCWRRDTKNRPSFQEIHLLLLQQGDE
Method: as §1

ITK = target: T2, ITK (Homo sapiens, UniProt Q08881); conditions: for Inhibition at 1 µM (%): ITK, ZLYTE, ATP Km app
T2 sequence (Q08881 1-620): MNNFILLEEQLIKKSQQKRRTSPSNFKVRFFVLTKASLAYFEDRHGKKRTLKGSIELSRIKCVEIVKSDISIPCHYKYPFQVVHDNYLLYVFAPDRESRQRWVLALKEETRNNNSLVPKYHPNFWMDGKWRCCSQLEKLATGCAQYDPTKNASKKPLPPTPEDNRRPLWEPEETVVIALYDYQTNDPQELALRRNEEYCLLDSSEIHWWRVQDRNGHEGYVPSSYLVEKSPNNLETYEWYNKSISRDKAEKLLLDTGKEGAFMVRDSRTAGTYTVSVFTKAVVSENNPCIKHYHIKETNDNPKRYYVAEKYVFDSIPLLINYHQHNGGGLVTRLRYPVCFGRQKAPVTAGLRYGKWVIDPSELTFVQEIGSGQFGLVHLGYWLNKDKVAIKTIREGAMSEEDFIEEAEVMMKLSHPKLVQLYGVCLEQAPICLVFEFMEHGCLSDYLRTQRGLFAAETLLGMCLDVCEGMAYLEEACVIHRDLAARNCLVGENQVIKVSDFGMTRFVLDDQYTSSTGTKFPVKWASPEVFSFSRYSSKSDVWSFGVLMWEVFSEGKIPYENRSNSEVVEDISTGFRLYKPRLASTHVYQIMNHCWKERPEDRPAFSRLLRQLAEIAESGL
Method: as §1

EPHA1 = EPHA1 (Homo sapiens, UniProt P21709)
EPHA1, sequence (P21709 26-976): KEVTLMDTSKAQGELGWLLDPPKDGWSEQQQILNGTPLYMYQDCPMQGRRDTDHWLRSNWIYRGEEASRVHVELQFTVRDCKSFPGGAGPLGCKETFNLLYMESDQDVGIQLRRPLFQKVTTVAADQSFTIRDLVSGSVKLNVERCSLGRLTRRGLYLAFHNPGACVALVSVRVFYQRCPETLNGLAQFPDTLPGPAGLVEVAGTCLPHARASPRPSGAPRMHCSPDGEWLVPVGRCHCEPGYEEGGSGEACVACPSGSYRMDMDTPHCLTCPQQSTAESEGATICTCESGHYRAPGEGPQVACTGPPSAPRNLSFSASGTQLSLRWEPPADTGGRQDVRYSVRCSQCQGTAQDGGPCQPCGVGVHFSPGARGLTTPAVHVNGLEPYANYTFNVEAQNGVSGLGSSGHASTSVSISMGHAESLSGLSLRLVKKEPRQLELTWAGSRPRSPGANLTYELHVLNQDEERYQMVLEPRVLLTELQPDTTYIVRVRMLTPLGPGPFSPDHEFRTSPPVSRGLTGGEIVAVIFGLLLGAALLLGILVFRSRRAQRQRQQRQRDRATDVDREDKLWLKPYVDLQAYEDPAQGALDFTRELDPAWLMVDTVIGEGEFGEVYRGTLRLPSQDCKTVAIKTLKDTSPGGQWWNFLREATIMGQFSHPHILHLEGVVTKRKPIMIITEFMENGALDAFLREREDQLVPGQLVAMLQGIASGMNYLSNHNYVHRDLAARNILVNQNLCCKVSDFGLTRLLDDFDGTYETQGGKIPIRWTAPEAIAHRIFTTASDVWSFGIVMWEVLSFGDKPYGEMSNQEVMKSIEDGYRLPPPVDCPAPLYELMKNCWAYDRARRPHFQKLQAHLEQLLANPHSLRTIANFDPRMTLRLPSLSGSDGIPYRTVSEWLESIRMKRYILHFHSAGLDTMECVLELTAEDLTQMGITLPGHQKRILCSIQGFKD
Method: as §1

MLCK (MLCK2) = target: T3, MLCK (MLCK2) (Homo sapiens, UniProt Q32MK0)
T3 sequence (Q32MK0 1-819): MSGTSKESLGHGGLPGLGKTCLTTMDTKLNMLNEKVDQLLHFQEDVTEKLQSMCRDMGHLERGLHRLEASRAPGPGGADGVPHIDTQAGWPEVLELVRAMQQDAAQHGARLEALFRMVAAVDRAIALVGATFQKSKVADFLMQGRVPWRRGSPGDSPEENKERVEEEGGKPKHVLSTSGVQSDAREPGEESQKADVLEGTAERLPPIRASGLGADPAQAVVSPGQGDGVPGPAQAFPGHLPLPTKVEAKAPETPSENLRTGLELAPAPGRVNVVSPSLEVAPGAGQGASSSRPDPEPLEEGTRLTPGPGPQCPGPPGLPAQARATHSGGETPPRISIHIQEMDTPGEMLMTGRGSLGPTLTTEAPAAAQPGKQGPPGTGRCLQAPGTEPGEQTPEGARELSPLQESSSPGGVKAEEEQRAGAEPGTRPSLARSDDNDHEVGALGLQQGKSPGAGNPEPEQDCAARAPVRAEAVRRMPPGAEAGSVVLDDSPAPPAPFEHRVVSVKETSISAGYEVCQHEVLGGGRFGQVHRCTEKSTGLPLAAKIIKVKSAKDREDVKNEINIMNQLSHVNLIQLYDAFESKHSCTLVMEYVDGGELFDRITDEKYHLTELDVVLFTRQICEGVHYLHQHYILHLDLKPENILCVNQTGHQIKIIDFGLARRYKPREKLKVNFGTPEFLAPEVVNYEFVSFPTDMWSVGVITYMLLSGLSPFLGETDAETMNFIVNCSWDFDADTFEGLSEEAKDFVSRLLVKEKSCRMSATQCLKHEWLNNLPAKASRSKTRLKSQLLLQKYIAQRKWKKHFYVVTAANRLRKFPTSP
Method: as §1

SRMS (Srm) = SRMS (Srm) (Homo sapiens, UniProt Q9H3Y6)
SRMS (Srm), sequence (Q9H3Y6 whole entry): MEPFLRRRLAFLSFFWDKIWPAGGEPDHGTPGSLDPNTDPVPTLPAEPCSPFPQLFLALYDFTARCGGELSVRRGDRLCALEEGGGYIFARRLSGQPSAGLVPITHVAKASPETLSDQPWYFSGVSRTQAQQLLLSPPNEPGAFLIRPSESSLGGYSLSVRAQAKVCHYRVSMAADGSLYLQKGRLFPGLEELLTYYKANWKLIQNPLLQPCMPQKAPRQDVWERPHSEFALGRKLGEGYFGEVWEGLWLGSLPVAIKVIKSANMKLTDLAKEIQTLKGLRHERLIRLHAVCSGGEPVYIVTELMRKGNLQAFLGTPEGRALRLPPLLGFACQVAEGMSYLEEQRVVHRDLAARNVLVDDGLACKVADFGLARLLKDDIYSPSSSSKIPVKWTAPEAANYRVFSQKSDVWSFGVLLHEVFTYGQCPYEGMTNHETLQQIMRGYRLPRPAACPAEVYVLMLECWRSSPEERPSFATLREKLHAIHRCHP
Method: as §1

MET (cMet) = MET (cMet) (Homo sapiens, UniProt P08581)
MET (cMet), sequence (P08581 25-1390): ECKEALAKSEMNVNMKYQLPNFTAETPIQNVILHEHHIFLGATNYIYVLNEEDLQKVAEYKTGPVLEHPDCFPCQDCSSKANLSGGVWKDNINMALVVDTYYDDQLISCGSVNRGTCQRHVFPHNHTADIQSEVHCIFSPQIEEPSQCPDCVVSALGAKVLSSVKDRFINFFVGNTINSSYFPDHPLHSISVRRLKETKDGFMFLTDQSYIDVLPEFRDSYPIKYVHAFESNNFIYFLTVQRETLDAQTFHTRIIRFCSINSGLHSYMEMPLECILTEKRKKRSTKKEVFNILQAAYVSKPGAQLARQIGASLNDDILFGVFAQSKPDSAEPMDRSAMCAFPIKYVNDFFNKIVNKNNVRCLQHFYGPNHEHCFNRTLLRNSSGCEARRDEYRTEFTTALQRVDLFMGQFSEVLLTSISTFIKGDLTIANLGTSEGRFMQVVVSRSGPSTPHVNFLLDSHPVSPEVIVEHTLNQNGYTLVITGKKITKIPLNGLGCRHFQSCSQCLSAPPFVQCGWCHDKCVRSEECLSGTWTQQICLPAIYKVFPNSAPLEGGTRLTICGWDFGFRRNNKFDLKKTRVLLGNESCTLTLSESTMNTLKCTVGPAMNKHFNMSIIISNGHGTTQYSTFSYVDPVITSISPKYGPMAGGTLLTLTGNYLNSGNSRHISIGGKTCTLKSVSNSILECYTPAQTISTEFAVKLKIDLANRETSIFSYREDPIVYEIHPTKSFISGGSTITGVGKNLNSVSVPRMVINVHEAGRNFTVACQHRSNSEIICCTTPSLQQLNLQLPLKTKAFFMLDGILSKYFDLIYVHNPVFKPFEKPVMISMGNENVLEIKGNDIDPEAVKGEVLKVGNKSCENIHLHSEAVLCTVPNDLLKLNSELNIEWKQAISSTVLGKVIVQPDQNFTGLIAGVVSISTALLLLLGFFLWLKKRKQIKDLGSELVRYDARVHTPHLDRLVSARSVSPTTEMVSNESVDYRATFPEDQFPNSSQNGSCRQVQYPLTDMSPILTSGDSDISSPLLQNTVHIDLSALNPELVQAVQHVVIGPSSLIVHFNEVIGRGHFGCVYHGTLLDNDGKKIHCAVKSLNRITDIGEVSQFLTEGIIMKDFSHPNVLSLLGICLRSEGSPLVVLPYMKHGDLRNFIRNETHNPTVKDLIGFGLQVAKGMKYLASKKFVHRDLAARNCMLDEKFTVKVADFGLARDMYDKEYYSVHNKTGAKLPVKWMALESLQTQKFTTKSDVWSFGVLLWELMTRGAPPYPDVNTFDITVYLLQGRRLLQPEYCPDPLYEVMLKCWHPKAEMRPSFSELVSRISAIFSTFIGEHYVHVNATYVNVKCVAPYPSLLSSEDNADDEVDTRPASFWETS
Method: as §1

[1] = 1 h, 1 μM WEL028, 1 h preincubation
[2] = read-out: Inhibition at 1 µM (%)

PAK2 (PAK65), sequence (Q13177 whole entry): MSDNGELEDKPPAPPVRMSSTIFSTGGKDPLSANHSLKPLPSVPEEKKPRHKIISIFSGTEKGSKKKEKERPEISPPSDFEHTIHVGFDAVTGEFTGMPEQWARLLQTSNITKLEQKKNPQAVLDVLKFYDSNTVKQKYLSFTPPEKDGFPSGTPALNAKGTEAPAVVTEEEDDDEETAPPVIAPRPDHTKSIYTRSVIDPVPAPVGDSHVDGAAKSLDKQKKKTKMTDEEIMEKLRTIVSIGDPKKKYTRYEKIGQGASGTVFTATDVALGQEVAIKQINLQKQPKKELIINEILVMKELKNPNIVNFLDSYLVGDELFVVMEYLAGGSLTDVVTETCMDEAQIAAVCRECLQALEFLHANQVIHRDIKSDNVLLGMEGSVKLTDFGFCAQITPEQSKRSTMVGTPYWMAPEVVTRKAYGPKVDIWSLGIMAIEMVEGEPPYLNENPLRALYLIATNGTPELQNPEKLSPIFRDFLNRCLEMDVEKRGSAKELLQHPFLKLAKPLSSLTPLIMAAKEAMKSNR

SMILES: C#CCOc1ccc(Nc2ncc(Cl)c(Nc3ccccc3NC(=O)C=C)n2)c(OC)c1 [Compound 6]
- inhibition at 1 µM (PAK2 (PAK65); [1]): 29%
- Inhibition at 1 µM (%) (PAK2 (PAK65); PAK2 (PAK65), 1 µM, ZLYTE, ATP Km app, listed as WEL028, 1 µM): 23%
- inhibition at 1 µM (PAK2 (PAK65); read-out: Inhibition at 1 µM (%), PAK2 (PAK65), 1 µM, ZLYTE, ATP Km app): 35%
- inhibition at 1 µM (RIPK2; 1 h): 1%
- inhibition at 1 µM (RIPK2; [2]): 1%
- inhibition at 1 µM (BMPR1B (ALK6); 1 h): 24%
- inhibition at 1 µM (BMPR1B (ALK6); [2]): 24%
- inhibition at 1 µM (MAPK3 (ERK1); [1]): 19%
- Inhibition at 1 µM (%) (MAPK3 (ERK1); MAPK3 (ERK1), 1 µM, ZLYTE, ATP Km app, listed as WEL028, 1 µM): 14%
- inhibition at 1 µM (MAPK3 (ERK1); read-out: Inhibition at 1 µM (%), MAPK3 (ERK1), 1 µM, ZLYTE, ATP Km app): 23%
- inhibition at 1 µM (PRKCZ (PKC zeta); [1]): -1%
- Inhibition at 1 µM (%) (PRKCZ (PKC zeta)): 3%
- Inhibition at 1 µM (%) (PRKCZ (PKC zeta); listed as WEL028, 1 µM): -5%
- inhibition at 1 µM (DDR2; [1]): 3%
- inhibition at 1 µM (DDR2; read-out: Inhibition at 1 µM (%), DDR2, 1 µM, LanthaScreen Binding): 2%
- Inhibition (%) (ITK; 1 μM WEL028, 1 h preincubation): -7%
- Inhibition at 1 µM (%) (ITK): -3%
- Inhibition at 1 µM (%) (ITK; listed as WEL028, 1 µM): -10%
- inhibition at 1 µM (EPHA1; 1 h): 5%
- inhibition at 1 µM (EPHA1; [2]): 5%
- inhibition at 1 µM (MLCK (MLCK2); [1]): 9%
- Inhibition at 1 µM (%) (MLCK (MLCK2); MLCK (MLCK2), 1 µM, LanthaScreen Binding, listed as WEL028, 1 µM): 8%
- inhibition at 1 µM (MLCK (MLCK2); read-out: Inhibition at 1 µM (%), MLCK (MLCK2), 1 µM, LanthaScreen Binding): 9%
- Inhibition at 1 µM (%) (SRMS (Srm); 1 µM, ZLYTE, ATP Km app, listed as WEL028, 1 µM): 8%
- inhibition at 1 µM (SRMS (Srm); [1]): 7%
- inhibition at 1 µM (SRMS (Srm); read-out: Inhibition at 1 µM (%), 1 µM, ZLYTE, ATP Km app): 6%
- Inhibition (%) (MET (cMet); 1 μM WEL028, 1 h preincubation): -4%
- Inhibition at 1 µM (%) (MET (cMet); MET (cMet), 1 µM, ZLYTE, ATP Km app, listed as WEL028, 1 µM): 0% and -9%
